Assay results as given in article PMC5772529 (Scientific Reports, 2018).
Positions of bridges follow the written chain, without caps; N, C: chain ends. Residues, ends and D or L forms follow the SMILES beside them.

Assays:
Beagle dogs = details: dog, in vivo
[1] = biological target: T1, human CaV2.2 (α1B, β3, α2δ1) (Homo sapiens, UniProt Q00975); assay: cell-based; design: Emax: dose or concentration left out as unconfirmed
T1 construct: expressed in transfected cells
T1 sequence (Q00975 whole entry, looked up): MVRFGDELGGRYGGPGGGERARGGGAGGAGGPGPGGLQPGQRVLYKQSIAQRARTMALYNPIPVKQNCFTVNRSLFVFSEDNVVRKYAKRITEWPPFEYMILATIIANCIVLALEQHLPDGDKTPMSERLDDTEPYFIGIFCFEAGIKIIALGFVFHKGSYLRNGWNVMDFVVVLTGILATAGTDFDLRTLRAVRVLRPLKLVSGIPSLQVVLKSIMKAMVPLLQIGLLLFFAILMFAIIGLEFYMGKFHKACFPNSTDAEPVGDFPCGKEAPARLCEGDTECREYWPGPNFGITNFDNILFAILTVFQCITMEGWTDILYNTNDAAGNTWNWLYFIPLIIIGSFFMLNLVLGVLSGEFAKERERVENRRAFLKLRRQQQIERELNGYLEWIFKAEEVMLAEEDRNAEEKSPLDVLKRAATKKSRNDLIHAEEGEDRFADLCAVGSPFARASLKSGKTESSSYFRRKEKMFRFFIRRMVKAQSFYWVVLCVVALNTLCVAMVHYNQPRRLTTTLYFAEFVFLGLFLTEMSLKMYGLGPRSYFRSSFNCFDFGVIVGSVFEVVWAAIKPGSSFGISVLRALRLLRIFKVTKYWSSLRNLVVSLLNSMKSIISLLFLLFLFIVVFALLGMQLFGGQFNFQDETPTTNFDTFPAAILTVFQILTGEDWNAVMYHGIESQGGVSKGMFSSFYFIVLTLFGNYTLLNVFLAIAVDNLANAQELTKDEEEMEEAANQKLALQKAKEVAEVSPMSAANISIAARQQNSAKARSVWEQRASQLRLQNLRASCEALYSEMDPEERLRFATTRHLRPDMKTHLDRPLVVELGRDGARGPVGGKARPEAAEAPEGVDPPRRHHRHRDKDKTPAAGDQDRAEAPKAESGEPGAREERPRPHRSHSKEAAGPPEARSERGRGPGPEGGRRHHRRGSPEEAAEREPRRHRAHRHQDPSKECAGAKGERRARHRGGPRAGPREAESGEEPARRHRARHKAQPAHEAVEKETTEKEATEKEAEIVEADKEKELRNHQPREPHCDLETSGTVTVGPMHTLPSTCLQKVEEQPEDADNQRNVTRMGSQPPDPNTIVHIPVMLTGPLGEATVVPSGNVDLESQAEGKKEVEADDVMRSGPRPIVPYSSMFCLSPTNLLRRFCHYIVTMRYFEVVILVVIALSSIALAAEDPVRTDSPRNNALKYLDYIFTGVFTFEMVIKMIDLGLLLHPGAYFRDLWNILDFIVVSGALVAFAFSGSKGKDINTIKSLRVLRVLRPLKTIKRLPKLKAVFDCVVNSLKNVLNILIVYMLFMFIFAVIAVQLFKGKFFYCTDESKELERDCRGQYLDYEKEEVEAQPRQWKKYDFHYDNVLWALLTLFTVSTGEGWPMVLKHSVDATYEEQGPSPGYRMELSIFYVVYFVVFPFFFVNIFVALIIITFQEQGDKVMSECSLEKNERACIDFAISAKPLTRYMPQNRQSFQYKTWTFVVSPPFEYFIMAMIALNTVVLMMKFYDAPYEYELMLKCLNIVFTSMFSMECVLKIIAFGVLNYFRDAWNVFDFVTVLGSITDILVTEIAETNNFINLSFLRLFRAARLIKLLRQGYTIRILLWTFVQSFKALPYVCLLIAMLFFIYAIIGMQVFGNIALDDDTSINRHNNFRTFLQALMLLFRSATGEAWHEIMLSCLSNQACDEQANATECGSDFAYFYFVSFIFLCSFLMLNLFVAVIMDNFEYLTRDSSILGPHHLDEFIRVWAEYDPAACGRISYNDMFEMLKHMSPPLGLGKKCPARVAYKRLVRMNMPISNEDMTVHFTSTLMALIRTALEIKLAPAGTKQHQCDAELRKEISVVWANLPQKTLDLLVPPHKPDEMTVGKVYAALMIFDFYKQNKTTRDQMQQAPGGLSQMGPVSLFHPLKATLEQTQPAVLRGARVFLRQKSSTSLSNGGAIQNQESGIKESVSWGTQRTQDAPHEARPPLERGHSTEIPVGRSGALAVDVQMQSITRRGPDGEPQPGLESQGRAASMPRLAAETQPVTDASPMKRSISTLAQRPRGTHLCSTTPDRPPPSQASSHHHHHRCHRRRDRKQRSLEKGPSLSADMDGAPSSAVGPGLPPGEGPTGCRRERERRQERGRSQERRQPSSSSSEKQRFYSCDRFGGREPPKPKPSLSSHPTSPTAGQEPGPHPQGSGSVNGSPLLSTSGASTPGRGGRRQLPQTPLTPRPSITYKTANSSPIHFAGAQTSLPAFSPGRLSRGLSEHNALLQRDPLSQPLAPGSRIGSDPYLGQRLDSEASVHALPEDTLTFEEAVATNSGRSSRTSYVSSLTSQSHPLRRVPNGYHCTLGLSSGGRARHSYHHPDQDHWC

SMILES: CSCC[C@@H]1NC(=O)[C@@H]2CSSC[C@H](NC(=O)CN)C(=O)N[C@@H](CSSC[C@@H](C(N)=O)NC(=O)[C@H](CC(C)C)NC(=O)[C@H](CC(N)=O)NC(=O)[C@@H]3CCCN3C(=O)[C@H](CC(N)=O)NC(=O)[C@H](CCCCN)NC(=O)[C@H](CC(C)C)NC1=O)C(=O)N[C@@H](CO)C(=O)N[C@@H](CC(N)=O)C(=O)N1CCC[C@H]1C(=O)N[C@@H](C)C(=O)N2 [Eu1.6] (H-GCCSNPACMLKNPNLC-NH2; disulfide 2-8, 3-16)
- physiological impairments of baseline parameters (locomotion, cardiac and respiratory function) (Beagle dogs): no physiological impairments
- IC50 [1]: 1.1 nM
- maximum block of CaV2.2 [1]: < 50%
- reduction of peak current density [1]: > 40%
- inhibition at 1 µM ([1]; HEK293, read-out: inhibition of depolarization-activated Ba2+ current amplitude): > 30%
- Emax ([1]; HEK293, read-out: maximal effect (partial inhibitor)): 40%
